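Assay format: 96-well plates, 48-hour exposure. TGI: total growth inhibition.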
How the values were obtained:
Assay in all cases: inhibition of tumour cell growth, NCI panel, 48 h
ACHN renal = tested on: ACHN renal
COLO 205 colon = tested on: COLO 205 colon
HCC-2998 colon = tested on: HCC-2998 colon
HCT-116 colon = tested on: HCT-116 colon
HCT-15 colon = tested on: HCT-15 colon
HOP-62 NSCLC = tested on: HOP-62 NSCLC
K-562 leukemia = tested on: K-562 leukemia
KM12 colon = tested on: KM12 colon
MALME-3M melanoma = tested on: MALME-3M melanoma
NCI-H460 lung = tested on: NCI-H460 lung
OVCAR-5 ovarian = tested on: OVCAR-5 ovarian
OVCAR-8 ovarian = tested on: OVCAR-8 ovarian
SF-268 CNS = tested on: SF-268 CNS
SK-MEL-2 melanoma = tested on: SK-MEL-2 melanoma
SR leukemia = tested on: SR leukemia
SW-620 colon = tested on: SW-620 colon
UACC-257 melanoma = tested on: UACC-257 melanoma
MCF7 breast = tested on: MCF7 breast
MDA-N = tested on: MDA-N
PC-3 prostate = tested on: PC-3 prostate

Row | Compound | TGI (ACHN renal) [µM] | TGI (COLO 205 colon) [µM] | TGI (HCC-2998 colon) [µM] | TGI (HCT-116 colon) [µM] | TGI (HCT-15 colon) [µM] | TGI (HOP-62 NSCLC) [µM] | TGI (K-562 leukemia) [µM] | TGI (KM12 colon) [µM] | TGI (MALME-3M melanoma) [µM] | TGI (NCI-H460 lung) [µM] | TGI (OVCAR-5 ovarian) [µM] | TGI (OVCAR-8 ovarian) [µM] | TGI (SF-268 CNS) [µM] | TGI (SK-MEL-2 melanoma) [µM] | TGI (SR leukemia) [µM] | TGI (SW-620 colon) [µM] | TGI (UACC-257 melanoma) [µM] | TGI (MCF7 breast) [µM] | TGI (MDA-N) [µM] | TGI (PC-3 prostate) [µM]
1 | CCOC(=O)Nc1cc2nnc(-c3ccccc3)nc2c(N)n1 | > 100 | 40.5 | > 100 | 38.7 | > 100 | 37.6 | > 100 | > 100 | 87.7 | 29.8 | 48.5 | 76.4 | > 100 | > 100 | 72.2 | 42.2 | > 100 | – | – | –
2 | CCc1ccc(N=Cc2cc(OC)c(OC)c(OC)c2)cc1 | > 100 | > 100 | – | > 100 | > 100 | > 100 | 73.3 | > 100 | > 100 | > 100 | > 100 | > 100 | > 100 | > 100 | – | 28.7 | > 100 | – | – | –
3 | CC(=O)OC12/C(=N/O)CCCCCC1c1ccccc12 (centres undefined) | > 100 | > 100 | – | > 100 | > 100 | > 100 | > 100 | > 100 | > 100 | > 100 | – | > 100 | > 100 | > 100 | > 100 | > 100 | > 100 | – | – | –
4 | Cc1ccc(S(=O)(=O)c2c(N)c3nc4ccccc4n3c3nc4ccccc4nc23)cc1 | > 100 | > 100 | > 100 | > 100 | > 100 | > 100 | > 100 | > 100 | > 100 | > 100 | > 100 | > 100 | > 100 | > 100 | > 100 | > 100 | > 100 | – | – | –
5 | CN(C)CCOc1cccc2c1C(=O)c1ccccc1C2=O | > 100 | 16.1 | 30.3 | 17.2 | 27.3 | 30.9 | 33.7 | 26.2 | 26.5 | 19.2 | 40.8 | 56 | 27.3 | 31.4 | – | 43.7 | 25.8 | – | – | –
6 | Cc1cn(Cc2ccccc2CCO)c(=S)[nH]c1=O | > 100 | > 100 | – | – | > 100 | > 100 | > 100 | > 100 | > 100 | > 100 | > 100 | > 100 | > 100 | > 100 | – | > 100 | > 100 | – | – | –
7 | COc1ccc(/C=C2\CCC(C)C3=C(c4ccc(OC)c(OC)c4)C(C#N)=C(N)OC32)cc1OC (centres undefined) | > 100 | 7.74 | – | 20.2 | 38 | – | > 100 | 66.5 | 32.2 | 11.1 | 23.6 | > 100 | > 100 | 5.63 | – | > 100 | 37 | 19.5 | 12.1 | 38.1
8 | O=C(Nc1c(O)[nH]c(=S)[nH]c1=O)c1ccccc1F | > 100 | > 100 | – | > 100 | > 100 | > 100 | > 100 | > 100 | > 100 | > 100 | > 100 | > 100 | > 100 | > 100 | > 100 | > 100 | > 100 | – | – | –
9 | COc1ccc(C2=CC(c3ccccc3)n3nnnc3N2)cc1 (centres undefined) | > 100 | > 100 | – | > 100 | > 100 | > 100 | > 100 | > 100 | – | > 100 | > 100 | > 100 | > 100 | > 100 | > 100 | > 100 | > 100 | > 100 | – | > 100
10 | Cc1ccccc1C(=O)c1c(O)c2c(c(O)c1Br)CCCC2 | 31.9 | 34.2 | 34 | 30.2 | 32.9 | > 100 | 47.8 | 30.9 | 24.7 | 56.6 | 34.6 | 36 | 29 | 31.3 | 44.5 | 34.1 | 29.2 | – | – | –
11 | CC1(C)CCC[C@@]2(C)C1CCC1(C)C(CCc3ccoc3)/C(=C/OS(=O)(=O)O)CCC12 (some centres undefined) (tested in a mixture with another compound) | > 100 | > 100 | > 100 | 38.9 | > 100 | > 100 | > 100 | > 100 | > 100 | > 100 | > 100 | > 100 | > 100 | > 100 | > 100 | > 100 | > 100 | – | – | –
12 | C/C(CN1C(=O)c2ccccc2C1=O)=N\NS(=O)(=O)c1ccc(C)cc1 | > 100 | > 100 | > 100 | > 100 | > 100 | > 100 | > 100 | > 100 | > 100 | > 100 | > 100 | > 100 | – | > 100 | > 100 | > 100 | > 100 | – | – | –
13 | ClCCCN(CCCCl)c1ccc(C=Nc2cccc(Cl)c2)cc1 | > 100 | > 100 | > 100 | > 66.6 | > 100 | > 75.1 | > 83.9 | > 80.6 | 44.3 | > 82.1 | > 91.4 | 56.5 | > 71.1 | > 100 | – | > 100 | > 77 | > 70.4 | – | 50.7
14 | CCOC(=O)c1cnn2c1ncc1c(=O)n(NC(N)=O)ccc12 | > 100 | > 100 | – | > 100 | > 100 | > 100 | – | > 100 | > 100 | > 100 | > 100 | > 100 | > 100 | > 100 | – | > 100 | > 100 | > 100 | > 100 | > 100

— PubChem BioAssay (NCI)
